In US20260098072A1, “METHODS OF STIMULATING APPETITE AND/OR INCREASING BODY WEIGHT USING NON-NATURALLY OCCURRING MELANOCORTIN RECEPTOR ANTAGONIST ANALOGS” (Endevica Bio, Inc., priority 2022, published 2026):
“Also recorded” adds a separate entry of the source. Blank lines part the entries; values can stand above or below the molecule they belong to. Positions of bridges follow the written chain, without caps; N, C: chain ends. Non-standard residues stand in square brackets, D forms with d. Residues, ends and D or L forms follow the SMILES beside them. No end group written: not given here. d2Nal = N[C@H](Cc1ccc2ccccc2c1)C(=O)O; Nle = CCCC[C@H](N)C(=O)O

What was measured:
[1] = tested on: urethane-anesthetized rats; test: Cardiovascular effects (MAP, heart rate, ECG) in urethane-anesthetized rats
Procedure: These studies were performed in urethane-anesthetized rats, since anesthesia is required for six-lead ECG monitoring. […] Initial selection of doses was guided by FDA exploratory IND studies with a recommendation for at least a 100-fold excess of the human dose.

Lewis sarcoma rat model = Lewis sarcoma rat model of cancer cachexia; assay type: in vivo
Procedure: This sarcoma is an aggressive form of cancer that produces significant cachexia. Popp et al., Cancer 49 (6): 1212-1220 (1982). In the protocol, “treatment” began 8-days after tumor implantation, with a significant decrease in food intake from baseline. Body composition was determined by NMR prior to tumor implantation, and on the final day of the experiment after tumor resection, by ECHO MRI (NMR). Tumor implantation produces cachexia on or about the sixth day. The non-naturally occurring melanocortin analog or saline was administered after day 8 and continued through day 12.

LPS model of cachexia = test: LPS-induced cachexia assay in rats; assay type: in vivo, rat; conditions: for peripheral (IP) anti-cachexia activity / blood-brain barrier transport: peripheral administration
Procedure: The LPS model uses rats were maintained on a 12 h light/dark schedule with ad libitum access to food and water. Animals were handled daily for a minimum of three consecutive days to decrease non-specific handling stress. On the day of the experiment, individually housed animals received intraperitoneal injections of LPS dissolved in 0.5% low-endotoxin BSA, 0.9% saline or 0.5% BSA in 0.9% saline alone, and were returned to their home cage. The drug or control was administered (ICV, IP, or PO, depending on the type of study) 1-hour after LPS injection.
In the experiments performed in accordance with the present technology, a series of melanocortin receptor antagonist peptides were examined in a bacterial endotoxin inducing cachexia assay. For this assay, a rat is challenged with a single peripheral injection of lipopolysaccharide (LPS). LPS is a heat-stable lipo-polysaccharide, the major component of the outer membrane (capsule) of gram negative bacteria. In non-capsulated strains, it appears as a cell surface protein. LPS produces a strong immune response, including secretion of the proinflammatory cytokines Tumor Necrosis Factor α (TNFα) and interleukin-1 (IL-1). Proinflammatory cytokines are known factors that induce cachexia.
Rats are maintained on a 12-hour light/dark cycle. Animals are handled daily for a minimum of 5 consecutive days to acclimate them to the handling required for the experiment. […] On the day of the experiment, individually housed animals receive intraperitoneal (IP) injections of LPS dissolved in 0.5% low-endotoxin BSA, 0.9% saline or 0.5% BSA in 0.9% saline alone, and returned in their home cage. Melanocortin receptor antagonist peptides were administered (IP or by gavage, depending on the type of study) one hour after the LPS injection. The extent of cachexia is measured by the reduction in food intake, measured every two hours. The cachexia typically lasts only a single day. However, rats lose up to 5% of their body weight during a 12-hour light cycle, making up this loss plus food needed for normal growth during the 12-hour dark cycle. Thus, failure to eat appropriately during a single dark cycle is determinable from the animal's weight and any changes thereof.
A series of melanocortin receptor antagonist peptides were examined in a bacterial toxin inducing cachexia assay. In this assay, a rat was challenged with a single peripheral injection of lipopolysaccharide (LPS), a bacterial toxin that rapidly induces acute cachexia. The extent of cachexia was measured as a reduction in food intake, measured every two hours. The cachexia typically lasts only a single day.

[2] = molecular target: human melanocortin 4 receptor (MC4R) (human) (UniProt P32245); test: cell-based or functional assay
human melanocortin 4 receptor (MC4R) (human), sequence (P32245 whole entry): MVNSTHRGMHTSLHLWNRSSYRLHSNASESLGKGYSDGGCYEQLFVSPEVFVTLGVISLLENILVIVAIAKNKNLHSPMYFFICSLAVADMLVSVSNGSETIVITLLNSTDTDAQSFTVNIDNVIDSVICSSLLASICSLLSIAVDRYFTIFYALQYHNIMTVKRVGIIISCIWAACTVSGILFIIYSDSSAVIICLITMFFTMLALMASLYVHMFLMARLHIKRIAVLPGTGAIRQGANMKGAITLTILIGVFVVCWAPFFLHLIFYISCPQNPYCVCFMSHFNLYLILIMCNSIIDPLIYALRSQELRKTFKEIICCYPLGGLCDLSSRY

[3] = molecular target: human melanocortin 3 receptor (MC3R) (human) (UniProt P41968); test: cell-based or functional assay
human melanocortin 3 receptor (MC3R) (human), sequence (P41968 whole entry): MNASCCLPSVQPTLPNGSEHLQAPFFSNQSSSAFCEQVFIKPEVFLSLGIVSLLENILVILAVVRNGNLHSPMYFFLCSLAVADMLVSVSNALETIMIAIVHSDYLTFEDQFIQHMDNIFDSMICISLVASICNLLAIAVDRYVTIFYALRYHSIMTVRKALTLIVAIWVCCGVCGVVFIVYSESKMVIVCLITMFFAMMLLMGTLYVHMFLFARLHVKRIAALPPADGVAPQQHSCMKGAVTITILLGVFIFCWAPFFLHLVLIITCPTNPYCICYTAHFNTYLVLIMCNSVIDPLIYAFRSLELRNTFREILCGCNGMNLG

Molecule: CCCC[C@H](NC(C)=O)C(=O)N[C@H]1CC(=O)NCCCC[C@@H](C(=O)O)NC(=O)[C@H](Cc2c[nH]c3ccccc23)NC(=O)[C@H](CCCN=C(N)N)NC(=O)[C@@H](Cc2ccccc2)NC(=O)[C@H](Cc2cnc[nH]2)NC1=O [Bremelanotide (PT-141), Ac-Nle-c[Asp-His-DPhe-Arg-Trp-Lys]-COOH]
Duration ([1]; 250 nmol): 140 ± 53 min | Peak Heart Rate Response (BPM) ([1]; 250 nmol): 44 ± 6 BPM | Peak MAP Response (Δ mm Hg) ([1]; 250 nmol): 32 ± 6 mm Hg | MAP after lethal dose ([1]; 900 nmol/kg IV, baseline MAP 80 mmHg): 140 mmHg | lethal dose ([1]; IV): 900 nmol/kg | ECG tracing (lead 2) ([1]; IV 600 nmol/kg): inverted P-wave

Molecule: CCCC[C@H](NC(=O)[C@H](Cc1ccc(O)cc1)NC(=O)[C@H](CO)NC(C)=O)C(=O)N[C@@H](CCC(=O)O)C(=O)N[C@@H](Cc1c[nH]cn1)C(=O)N[C@H](Cc1ccccc1)C(=O)N[C@@H](CCCNC(=N)N)C(=O)N[C@@H](Cc1c[nH]c2ccccc12)C(=O)NCC(=O)N[C@@H](CCCCN)C(=O)N1CCC[C@H]1C(=O)N[C@H](C(N)=O)C(C)C [MT-I, Ac-Ser-Tyr-Nle-Glu-His-DPhe-Arg-Trp-Gly-Lys-Pro-Val-NH2] (Ac-SY[Nle]EH[dF]RWGKPV-NH2)
Duration ([1]; 250 nmol): 0 min | Peak Heart Rate Response (BPM) ([1]; 250 nmol): 0/0 BPM | Peak MAP Response (Δ mm Hg) ([1]; 250 nmol): 0/0 mm Hg

Molecule: CCCC[C@H](NC(C)=O)C(=O)N[C@H]1CC(=O)NCCCC[C@@H](C(=O)N[C@@H](C(=O)N2CCC[C@@H]2C(=O)N[C@@H](C(=O)O)[C@H](C)O)[C@H](C)O)NC(=O)[C@H](Cc2c[nH]c3ccccc23)NC(=O)[C@H](CCCNC(=N)N)NC(=O)[C@@H](Cc2ccc3ccccc3c2)NC(=O)[C@@H]2CCCN2C1=O [TCMCB01, Ac-Nle-c[Asp-Pro-DNal(2′)-Arg-Trp-Lys]-DThr-DPro-DThr] (Ac-[Nle]DP[d2Nal]RWK[dT][dP][dT]-OH; lactam 2-7)
food intake (reversal of cachexia-anorexia) (Lewis sarcoma rat model; 2 nmol once per day): equivalent to AGRP; also recorded: reversed the cachexia-anorexia of the tumor burden | potency compared with AGRP and SHU9119 (Lewis sarcoma rat model; 2 nmol once per day): as potent as the natural melanocortin system inhibitor Agouti Related Protein (AGRP), and significantly more potent than SHU9119 | body weight after tumor implantation (Lewis sarcoma rat model; daily body weight): significantly greater than saline controls | lean body mass (NMR after tumor excision) (Lewis sarcoma rat model; p=0.05): increased lean body mass | anti-cachectic effect relative to AGRP (Lewis sarcoma rat model; related study (not shown)): 20 % greater than AGRP | anti-cachectic activity after ICV administration (LPS model of cachexia): only produced an anti-cachexia effect when given by IVt administration | peripheral (IP) anti-cachexia activity / blood-brain barrier transport (LPS model of cachexia): did not have peripheral activity; also recorded: no blood-brain barrier transport | Duration ([1]; 600 nmol): 0 min | Peak Heart Rate Response (BPM) ([1]; 600 nmol): 0/0 BPM | Peak MAP Response (Δ mm Hg) ([1]; 600 nmol): 0/0 mm Hg | cardiovascular activity / side effects ([1]; rat, in vivo): little cardiovascular activity

Molecule: O=C(N[C@H](Cc1ccc(Cl)cc1)C(=O)N1CCC(Cn2cncn2)(C2CCCCC2)CC1)[C@H]1Cc2ccccc2CN1 [THIQ, N-[(3R)-1,2,3,4-tetrahydroisoquinolinium-3-ylcarbonyl]-(1R)-1-(4-chlorobenzyl)-2-[4-cyclohexyl-4-(1H-1,2,4-triazol-1-ylmethyl)piperidin-1-yl]-2-oxoethylamine]
Duration ([1]; 300 nmol): 19 ± 4 min | Peak Heart Rate Response (BPM) ([1]; 300 nmol): 81 ± 09 BPM | Peak MAP Response (Δ mm Hg) ([1]; 300 nmol): 22 ± 11 mm Hg

Molecule: Ac-Nle-c[Asp-His-DNal(2′)-Arg-Trp-Lys]-DPro-DVal-NH2 (Ac-[Nle]DH[d2Nal]RWK[dP][dV]-NH2; lactam 2-7; SMILES CCCC[C@H](NC(C)=O)C(=O)N[C@H]1CC(=O)NCCCC[C@@H](C(=O)N2CCC[C@@H]2C(=O)N[C@@H](C(N)=O)C(C)C)NC(=O)[C@H](Cc2c[nH]c3ccccc23)NC(=O)[C@H](CCCNC(=N)N)NC(=O)[C@@H](Cc2ccc3ccccc3c2)NC(=O)[C@H](Cc2c[nH]cn2)NC1=O) [TCMCB03]
anti-cachectic activity after ICV administration (LPS model of cachexia): enhanced anti-cachexia; also recorded: superior anti-cachexia activity following ICV administration | peripheral (IP) anti-cachexia activity / blood-brain barrier transport (LPS model of cachexia): failed to cross the blood brain barrier; also recorded: did not possess as good peripheral (intraperitoneal/IP administration) anti-cachexia activity

Molecule: Ac-Nle-c[Asp-Pro-DNal(2′)-Arg-Trp-Lys]-DVal-DPro (Ac-[Nle]DP[d2Nal]RWK[dV][dP]; lactam 2-7) [TCMCB07A]
peripheral (IP) anti-cachexia activity / blood-brain barrier transport (LPS model of cachexia): equivalent stimulation of feeding

Molecule: Ac-Nle-c[Asp-Pro-DNal(2′)-Arg-Trp-Lys]-β^2Val-β^3Pro-NH2 [TCMCB08]
oral activity / gastrointestinal transport (LPS model of cachexia; gavage (intra-gastric)): no gastrointestinal transport; also recorded: not as much oral activity as TCMCB07 | peripheral (IP) anti-cachexia activity / blood-brain barrier transport (LPS model of cachexia): has peripheral activity; also recorded: good blood-brain barrier transport

Molecule: Ac-Nle-c[Asp-Pro-DNal(2′)-Arg-Trp-Lys]-β^3Pro-β^3Pro-NH2 [TCMCB10]
anti-cachectic activity after ICV administration (LPS model of cachexia): maintaining direct inhibitory effects | peripheral (IP) anti-cachexia activity / blood-brain barrier transport (LPS model of cachexia): showed no peripheral activity

Molecule: Ac-Nle-c[Asp-Pro-DNal(2′)-Arg-Trp-Lys]-β^3Pro-β^3Val-NH2 [TCMCB06]
food intake and body weight, 24-hours (LPS model of cachexia; 0.2 mg/kg intraperitoneally): ate less food than the other non-naturally occurring melanocortin analogs, and had no weight gain | anti-cachectic activity after ICV administration (LPS model of cachexia): molar activity equivalent to TCMCB02 | molar activity relative to TCMCB02 (LPS model of cachexia; ICV-administration): 10 fold

Molecule: Ac-Nle-c[Asp-Pro-DNal(2′)-Arg-Trp-Lys]-β^3Val-β^3Pro-NH2 [TCMCB09]
peripheral (IP) anti-cachexia activity / blood-brain barrier transport (LPS model of cachexia): inactive peripherally

Molecule: Ac-Nle-c[Asp-Pro-dNal(2′)-Arg-Trp-Lys]-dVal-dPro-NH2 (Ac-[Nle]DP[d2Nal]RWK[dV][dP]-NH2; lactam 2-7) [TCMCB07]
gastrocnemius mass (Lewis sarcoma rat model; low and high dose): preservation of gastrocnemius mass

Molecule: Ac-Nle-c[D-Asp-Pro-DNal(2′)-Arg-Trp-DLys]-DPro-DVal-NH2 (Ac-[Nle][dD]P[d2Nal]RW[dK][dP][dV]-NH2; lactam 2-7) [TCMCB04]
anti-cachectic activity after ICV administration (LPS model of cachexia): superior anti-cachectic activity compared to the parent compound | peripheral (IP) anti-cachexia activity / blood-brain barrier transport (LPS model of cachexia): No difference was observed between the non-naturally occurring melanocortin analog and saline; also recorded: eliminated blood brain barrier transport

IC50 (cAMP by HTRF, antagonist dose-response) [2]: 153 nM | Max Activation % [2]: 104% | IC50 (cAMP by HTRF, antagonist dose-response) [3]: 867 nM | Max Activation % [3]: 102%
Molecule: HS024 (TFA) (peptide)
